Reference: article PMC8907111 (Biochemical and Biophysical Research Communications, 2022)

Target: SARS-CoV-2 M^pro (Severe acute respiratory syndrome coronavirus 2, UniProt P0DTD1)
Test: FRET protease enzymatic inhibition assay
Assay type: biochemical
Conditions: for inhibition at 50 µM: read-out: M^pro Inhibition rate at 50 μM; for M^pro Inhibition rate at 50 μM: compound at 50 μM, FRET assay

SMILES: O=c1cc(-c2ccc(O)cc2)oc2cc(O)c(O)c(O)c12 [Compound 1, Scutellarein]
- inhibition at 50 µM: 102%

SMILES: COc1c(O)cc2oc(-c3ccc(O)cc3)cc(=O)c2c1O [Compound 2, Hispidulin]
- M^pro Inhibition rate at 50 μM: reduced rates of inhibition

SMILES: COc1ccc(-c2cc(=O)c3c(O)c(OC)c(O)cc3o2)cc1 [Compound 3, Pectolinarigenin]
- M^pro Inhibition rate at 50 μM: reduced rates of inhibition

SMILES: COc1ccc(-c2cc(=O)c3c(OC)c(O)c(O)cc3o2)cc1 [Compound 5, 6,7-dihydroxy-5-methoxy-2-(4-methoxyphenyl) chromone]
- IC50: 16.7 ± 2.09 µM

SMILES: COc1ccc(-c2cc(=O)c3c(O)c(OC)c(OC)cc3o2)cc1 [Compound 6, Salvigenin]
- M^pro Inhibition rate at 50 μM: reduced rates of inhibition

SMILES: COc1ccc(-c2cc(=O)c3c(OC)c(OC)c(OC)cc3o2)cc1 [Compound 7, 5,6,7,4'-tetramethoxyflavone]
- M^pro Inhibition rate at 50 μM: reduced rates of inhibition

SMILES: O=c1cc(-c2ccccc2)oc2cc(O)c(O)c(O)c12 [Compound 8, Baicalein, reference compound]
- inhibition at 50 µM: 103%
